Here are results for 25 compounds from ChEMBL document CHEMBL1128445, “Antiinflammatory 4,5-diarylpyrroles. 2. Activity as a function of cyclooxygenase-2 inhibition” (J Med Chem, 1995).

In data set [1] the test system is Rattus norvegicus. The data set can be described thus: In vivo effective dose required for antiinflammatory activity in rat adjuvant arthritis model. The format is functional.
Data set [2] deals with T1, Prostaglandin G/H synthase 1 (Ovis aries, UniProt P05979).
T1 sequence (P05979 whole entry): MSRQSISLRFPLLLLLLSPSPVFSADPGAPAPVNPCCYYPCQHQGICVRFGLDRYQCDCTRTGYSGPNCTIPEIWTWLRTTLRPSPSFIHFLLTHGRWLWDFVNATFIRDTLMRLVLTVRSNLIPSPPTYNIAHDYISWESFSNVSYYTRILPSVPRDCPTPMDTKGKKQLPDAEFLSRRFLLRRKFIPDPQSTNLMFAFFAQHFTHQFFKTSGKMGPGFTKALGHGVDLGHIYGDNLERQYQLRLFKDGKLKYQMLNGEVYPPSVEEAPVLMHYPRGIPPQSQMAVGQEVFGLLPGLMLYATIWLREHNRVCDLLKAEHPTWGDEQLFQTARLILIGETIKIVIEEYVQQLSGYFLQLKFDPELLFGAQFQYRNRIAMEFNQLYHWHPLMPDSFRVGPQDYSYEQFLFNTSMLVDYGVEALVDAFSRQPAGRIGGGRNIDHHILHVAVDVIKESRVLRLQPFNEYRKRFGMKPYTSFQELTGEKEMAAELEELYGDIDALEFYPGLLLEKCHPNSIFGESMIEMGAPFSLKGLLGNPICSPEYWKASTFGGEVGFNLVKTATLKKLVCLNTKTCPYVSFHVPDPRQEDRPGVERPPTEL
The data set is described as follows: Tested for inhibitory activity against Prostaglandin G/H synthase 1 from ovine.

In data set [3] the test system is Rattus norvegicus. The data set can be described thus: The compound was tested for maximum blood level reached in rats at 15.9 uM/Kg after intravenous administration. Further details: dose 15.9 uM/Kg, route intravenous. As to conditions: in vivo, 15.9 µmol/kg. Type of data set: ADME, organism-based.
The test system of data set [4] is Rattus norvegicus. The data set can be described thus: The compound was tested for maximum blood level reached in rats at 15.9 uM/Kg after peroral administration. The format is ADME, organism-based. Further details: dose 15.9 uM/Kg, route oral. To be noted: in vivo, po.

As for `COc1ccc2c(c1)c(CC(=O)O)c(C)n2C(=O)c1ccc(Cl)cc1` [INDOMETHACIN], the ED50 in data set [1] is 0.84 µM.
Regarding `CC(C)Cc1ccc(C(C)C(=O)O)cc1` (stereo not given) [IBUPROFEN], the ED50 in data set [1] was 484.8 µM.
One may read the IC50 as the point on the concentration scale where inhibition reaches its midpoint. Regarding `CS(=O)(=O)c1ccc(-c2[nH]c(Br)cc2-c2ccc(F)cc2)cc1`, half-maximal inhibition in data set [2] (IC50) was put at 132 µM. For the same compound, the ED50 in data set [1] turned out to be 2.66 µM. Further, the results for the Cmax in data set [3] and in data set [4] (15.9 µmol/kg) were 2 uM l-1 and 3 uM l-1, respectively.
Compound `CS(=O)(=O)c1ccc(-c2[nH]c(Cl)cc2-c2ccc(F)cc2)cc1` came in with an IC50 in data set [2] of 94 µM. Besides, the figures for the Cmax in data set [3] and in data set [4] (15.9 µmol/kg) were 1.4 uM l-1 and 2.3 uM l-1, respectively.
In data set [2], `CS(=O)(=O)c1ccc(-c2[nH]c(C(=O)C(F)(F)F)cc2-c2ccc(F)cc2)cc1` showed an IC50 of 580 µM. Moreover, in data set [1], the ED50 is 47.16 µM.
As to `CS(=O)(=O)c1ccc(-c2[nH]c([N+](=O)[O-])cc2-c2ccc(F)cc2)cc1`, the ED50 in data set [1] was determined as 24.97 µM.
On to `CC(=O)Oc1ccccc1C(=O)O` [ASPIRIN], for which the ED50 in data set [1] came out at 1942.7 µM.
As for `CS(=O)(=O)c1ccc(-c2[nH]c(I)c(I)c2-c2ccc(F)cc2)cc1`, the midpoint of inhibition in data set [2], the IC50, lay at 127 µM. Moreover, the ED50 in data set [1] worked out at 72.82 µM.
For `CS(=O)(=O)c1ccc(-c2[nH]c(I)cc2-c2ccc(F)cc2)cc1` the same measures were more than 300 µM and 49.86 µM.
For `Cn1ccc(-c2ccc(F)cc2)c1-c1ccc(S(C)(=O)=O)cc1`, the IC50 in data set [2] was more than 300 µM. The ED50 in data set [1] was more than 303 µM.
As to `CS(=O)(=O)c1ccc(-c2[nH]c(Br)c(Cl)c2-c2ccc(F)cc2)cc1`, the ED50 in data set [1] is 9.98 µM.
In data set [2], `Cn1c(Br)cc(-c2ccc(F)cc2)c1-c1ccc(S(C)(=O)=O)cc1` returned an IC50 of 516 µM. For the same compound, the ED50 in data set [1] came to 4.16 µM. Moreover, the Cmax was determined as 2.9 uM l-1 in data set [3] and 1.5 uM l-1 in data set [4] (15.9 µmol/kg).
The compound `CS(=O)(=O)c1ccc(-c2[nH]c(Cl)c(Cl)c2-c2ccc(F)cc2)cc1` registered an IC50 in data set [2] of 20 µM. The ED50 in data set [1] amounted to 3.9 µM.
For `Cn1c(Cl)c(Cl)c(-c2ccc(F)cc2)c1-c1ccc(S(C)(=O)=O)cc1`, in that order: 650 µM and 12.55 µM.
For the compound `CN1C(C(=O)Nc2ccccn2)=C(O)c2ccccc2S1(=O)=O` [PIROXICAM], the ED50 in data set [1] was 1.3 µM.
Compound `Cn1c(Br)c(Br)c(-c2ccc(F)cc2)c1-c1ccc(S(C)(=O)=O)cc1` came in with an IC50 in data set [2] of 767 µM. Besides, the ED50 in data set [1] came out at 8.54 µM.
For the compound `CC(C)(C)OC(=O)n1c(Br)cc(-c2ccc(F)cc2)c1-c1ccc(S(C)(=O)=O)cc1`, the 50% inhibitory concentration (IC50) in data set [2] is more than 300 µM. In data set [1], the ED50 was 32 µM.
For `CCCCC1C(=O)N(c2ccccc2)N(c2ccccc2)C1=O` [PHENYLBUTAZONE], in that order: 384 µM and 32.4 µM.
In turn, `CS(=O)(=O)c1ccc(-c2[nH]ccc2-c2ccc(F)cc2)cc1` came in with an IC50 in data set [2] of 373 µM. Moreover, the ED50 in data set [1] is more than 317 µM. The compound also gave a Cmax in data set [4] of less than 0.1 uM l-1.
The compound `CS(=O)(=O)c1ccc(-c2[nH]c(SC#N)cc2-c2ccc(F)cc2)cc1` yielded an IC50 in data set [2] of 219 µM. Moreover, the ED50 in data set [1] was found to be 10.47 µM.
For `CSc1cc(-c2ccc(F)cc2)c(-c2ccc(S(C)(=O)=O)cc2)[nH]1` the same measures were 36 µM and 4.89 µM.
As to `CS(=O)(=O)c1ccc(-c2[nH]c(C#N)cc2-c2ccc(F)cc2)cc1`, the ED50 in data set [1] is 3.82 µM. Further, the Cmax in data set [3] was determined as 4.1 uM l-1; in data set [4] (15.9 µmol/kg) it was 2.9 uM l-1.
With `CS(=O)(=O)c1ccc(-c2[nH]c(Cl)c(Br)c2-c2ccc(F)cc2)cc1`, 44 µM corresponded to half-maximal inhibition in data set [2] (IC50). In data set [1], the ED50 is 7.93 µM.
Take `CC(=O)n1c(Br)cc(-c2ccc(F)cc2)c1-c1ccc(S(C)(=O)=O)cc1`: the ED50 in data set [1] stood at 82.95 µM.
`CS(=O)(=O)c1ccc(-c2[nH]c(S(C)(=O)=O)cc2-c2ccc(F)cc2)cc1` yielded an IC50 in data set [2] of more than 300 µM. Further, in data set [1], the ED50 came out at 93.02 µM.
